Experimental findings from patent US7678941B2, “Polyoxyalkylene ammonium salts and their use as antistatic agents” (3M Innovative Properties Company, priority 2001, dated 2010) are described below.

Data set [1] is described as follows: Bioelimination study, amount of fluorochemical sulfonate in male rat liver tissue. The conditions noted are these: for Amount of Sulfonate, Day 1N / Amount of Sulfonate, Day 1 / Amount of Sulfonate, Day 14N / Amount of Sulfonate, Day 14 / Amount of Sulfonate, Day 28N / Amount of Sulfonate, Day 28: male rat liver; for Amount of Sulfonate, Day 1N / Amount of Sulfonate, Day 14N / Amount of Sulfonate, Day 28N: normalized to a feeding level of 3 mg/kg body weight per day; for Amount of Sulfonate, Day 1 / Amount of Sulfonate, Day 14 / Amount of Sulfonate, Day 28: potassium salts dosed at 30 (C4), 10 (C6), 3 (C8) mg/kg body weight/day; for elimination from the body: tested in the form of its potassium salt. The format is in vivo. On the procedure:
Bioelimination Study with Perfluorobutanesulfonate
Comparative study of potassium perfluorobutanesulfonate (using a dose level of 30 mg/kg body weight/day), potassium perfluorohexanesulfonate (using a dose level of 10 mg/kg body weight/day), and potassium perfluorooctanesulfonate (using a dose level of 3 mg/kg body weight/day).

Data set [2] is described as follows: Surface tension determination (Kruss K12 Tensiometer, Wilhelmy plate). The format is physicochemical. On the procedure: Test Method III—Surface Tension Determination
All surface tensions were determined using a Kruss K12 Tensiometer. It was integrated with an automatic dosimat and a computer, using a software package for dynamic contact angle (K121). The program was run using a Wilhelmy platinum plate (PL12) and glass sample vessel (GL7). All parts referenced above including instrument and computer can be purchased directly from Kruss USA, Charlotte, N.C.

Data set [3] in a line: Surface Resistivity Test (ASTM D-257) of topically coated polyester film. The conditions noted are these: 72° F., 27% relative humidity; for Surface Resistivity 1% MEK solution: 1% solution in MEK coated on polyester film; for Surface Resistivity 6% MEK: 6% solution in MEK coated on polyester film. How it is done: Test Method IV—Surface Resistivity Test
The Surface Resistivity Test was conducted according to the procedure of ASTM Standard D-257; “D.C. Resistance or Conductance of Insulating Materials”. The surface resistivity was measured under these conditions using an ETS Model 872 Wide Range Resistance Meter fitted with a Model 803B probe (Electro-Tech Systems, Inc., Glenside, Pa.). This apparatus applies an external voltage of 10 Volts across two concentric ring electrodes and provides surface resistivity readings in ohm/cm^2. The room temperature was 72° F. and there was a 27% relative humidity.
Topically Coated Polyester Film.
A 1% and 6% solution of the antistatic agent to be tested in methylethyl ketone (MEK) was prepared. About 2 mL of solution was pipetted onto the top of a sheet of polyester film with 25.5 cm by 17.8 cm dimensions. The solution was then drawn over the film using a #12 wire wound bar. The resulting coating was dried in a forced air oven for 2.5 minutes at 65° C.

The nature of data set [4]: Thermal gravimetric analysis (TGA). The conditions noted are these: for Wt. % remaining @ given Temp: nitrogen, 10° C. per minute ramp; for weight loss compared with chloride salt of the same cation: processing range of 200-320° C. The format is physicochemical. On the procedure:
Test Methods Test Method I—Thermal Gravimetric Analysis (TGA)
The thermal decomposition of each salt was determined by thermal gravimetric analysis (TGA) under an inert nitrogen atmosphere using a 10° C. per minute temperature ramp using a PerkinElmer Thermogravimetric Analyzer TGA 7, manufactured by PerkinElmer Instruments of Norwalk, Conn.
Table 3 provides thermal gravimetric data for antistats of the present invention and comparative antistats.

The mark [5] stands for this setting: at 28 days following completion of feeding, after normalization to the same feeding levels.
The mark [6] stands for this setting: liver amount at 28 days following completion of feeding.
Setting [7] is: liver amount immediately following completion of feeding.

As to `O=S(=O)([O-])C(F)(F)C(F)(F)C(F)(F)C(F)(F)F.[K+]` [Antistat C4F9SO3K, Potassium perfluorobutane sulfonate], in data set [1] (setting [5]), the “factor lower than C6F13SO3^−” value was 4400. Moreover, in data set [1] (setting [6]), the “factor lower than C6F13SO3^−” value is reported as greater than 1400. Also, the “factor lower than C6F13SO3^−” value in data set [1] (setting [7]) is on record as greater than 100. In addition, in data set [1], the “Amount of Sulfonate, Day 1N” value turned out to be 0.31 ppm; the “Amount of Sulfonate, Day 1” value stood at 3.09 ± 1.58 ppm; the “Amount of Sulfonate, Day 14N” value is reported as 0.0126 ppm; the “Amount of Sulfonate, Day 14” value came to 0.126 ± 0.084 ppm. Further, in data set [1], the “Amount of Sulfonate, Day 28N” value is listed as 0.0025 ppm and the “Amount of Sulfonate, Day 28” value stood at 0.025 ± 0.015 ppm. Moreover, in data set [1] (listed as C4F9SO3^−), the “elimination from the body” value was “unexpectedly fast and effective elimination”. Besides, the “elimination from the body” value in data set [1] (listed as perfluorobutanesulfonate) is “eliminates from the body more rapidly than perfluorohexanesulfonate and much more rapidly than perfluorooctanesulfonate”. In data set [2] (10 ppm in water), the surface energy worked out at 70 dyne/cm. Moreover, the surface energy in data set [2] (100 ppm in water) turned out to be 67.5 dyne/cm. In data set [2] (1000 ppm in water), this molecule gave a surface energy of 53 dyne/cm.

With `O=S(=O)([O-])C(F)(F)C(F)(F)C(F)(F)C(F)(F)C(F)(F)C(F)(F)C(F)(F)C(F)(F)F.[K+]` [Antistat C8F17SO3K, Potassium perfluorooctanesulfonate], in data set [1], the “Amount of Sulfonate, Day 1N” value stood at 419 ppm; the “Amount of Sulfonate, Day 1” value is listed as 419 ± 86 ppm; the “Amount of Sulfonate, Day 14N” value was 309 ppm; the “Amount of Sulfonate, Day 14” value is 309 + 34 ppm. In data set [1], the “Amount of Sulfonate, Day 28N” value stood at 237 ppm and the “Amount of Sulfonate, Day 28” value stood at 237 ± 25 ppm. The molecule also registered a surface energy in data set [2] (10 ppm in water) of 67.68 dyne/cm. In data set [2] (100 ppm in water), this molecule showed a surface energy of 54.09 dyne/cm. For the same molecule, the surface energy in data set [2] (1000 ppm in water) was determined as 33.17 dyne/cm.

With `O=S(=O)([N-]S(=O)(=O)C(F)(F)C(F)(F)C(F)(F)C(F)(F)F)C(F)(F)C(F)(F)C(F)(F)C(F)(F)F.[K+]` [C4F9SO2NKSO2C4F9, potassium bis(perfluorobutanesulfonyl)imide], the surface energy is 61.85 dyne/cm in data set [2] (10 ppm in water), 41.61 dyne/cm in data set [2] (100 ppm in water) and 34.02 dyne/cm in data set [2] (1000 ppm in water).

For `O=S(=O)([O-])C(F)(F)C(F)(F)C(F)(F)C(F)(F)C(F)(F)C(F)(F)F.[K+]` [C6F13SO3^−, potassium perfluorohexanesulfonate], the “factor lower than C8F17SO3^−” value in data set [1] (setting [5]) came out at 21.5. The “factor lower than C8F17SO3^−” value in data set [1] (setting [6]) amounted to 6.5. For the same molecule, the “factor lower than C8F17SO3^−” value in data set [1] (setting [7]) was 1.3. In data set [1], the “Amount of Sulfonate, Day 1N” value was determined as 98 ppm; the “Amount of Sulfonate, Day 1” value is 327 ± 52 ppm; the “Amount of Sulfonate, Day 14N” value came out at 19 ppm; the “Amount of Sulfonate, Day 14” value is recorded as 61.9 ± 11.7 ppm. For the same molecule, in data set [1], the “Amount of Sulfonate, Day 28N” value came out at 11 ppm and the “Amount of Sulfonate, Day 28” value turned out to be 36.3 ± 7.4 ppm.

As to “CH3CH2C[CH2(OCH2CH(CH3))xNH3^+][CH2(OCH2CH(CH3))yNH3^+][CH2(OCH2CH(CH3))zNH3^+][—N(SO2C4F9)2]3 where x+y+z˜5.3; JEFFAMINE™ T-403 DBI salt [Antistat 2]”, in data set [3], the “Surface Resistivity 1% MEK solution” value was 2.4 × 10^10 Ohm/cm^2 and the “Surface Resistivity 6% MEK” value is listed as 1.5 × 10^11 Ohm/cm^2.

“CH3CH2C[CH2(OCH2CH(CH3))xNH3^+][CH2(OCH2CH(CH3))yNH^3^+][CH2(OCH2CH(CH3))zNH3^+][^−N(SO2CF3)2]3 where x+y+z˜5.3; JEFFAMINE™ T-403 DMI salt [Antistat 3]”: in data set [3], the “Surface Resistivity 1% MEK solution” value is listed as 1.7 × 10^9 Ohm/cm^2 and the “Surface Resistivity 6% MEK” value is 1.1 × 10^9 Ohm/cm^2.

For “[(+)H3NCH(CH3)CH2[OCH(CH3)CH2]a[OCH2CH2]8.5[OCH2CH(CH3)]CNH3(+)][C8F17SO3^−]2 (a+c=2.5) [Comparative Antistat 1]”, in data set [3], the “Surface Resistivity 1% MEK solution” value is given as 1.6 × 10^11 Ohm/cm^2 and the “Surface Resistivity 6% MEK” value was 1.5 × 10^11 Ohm/cm^2.

As to “[(+)H3NCH(CH3)CH2[OCH(CH3)CH2]a[OCH2CH2]8.5[OCH2CH(CH3)]CNH3(+)][—N(SO2CF3)2]2 (a+c=2.5); JEFFAMINE™ XJT-500 [^—N(SO2CF3)2]salt [Antistat 7]”, in data set [3], the “Surface Resistivity 1% MEK solution” value was 1.2 × 10^9 Ohm/cm^2 and the “Surface Resistivity 6% MEK” value is 3.7 × 10^8 Ohm/cm^2.

Regarding “[(+)H3NCH(CH3)CH2[OCH(CH3)CH2]a[OCH2CH2]8.5[OCH2CH(CH3)]cNH3(+)][—N(SO2C4F9)2]2 (a+c=2.5); JEFFAMINE™ XJT-500 DBI salt [Antistat 1]”, in data set [3], the “Surface Resistivity 1% MEK solution” value is recorded as 8.5 × 10^9 Ohm/cm^2 and the “Surface Resistivity 6% MEK” value is 3.1 × 10^9 Ohm/cm^2.

Take “[C12H25N^+(CH3)(CH2CH2O)mH(CH2CH2O)nH][^−N(SO2CF3)2]; (m+n=15) [Antistat 4]”: the “Wt. % remaining @ given Temp” value in data set [4] (200° C.) came to 99.7 Wt. %; in data set [4] (240° C.) it was 99.5 Wt. %; in data set [4] (280° C.), 99.3 Wt. %; in data set [4] (320° C.), 98.6 Wt. %. Moreover, the “weight loss compared with chloride salt of the same cation” value in data set [4] is “less weight loss than ETHOQUAD™ C/25”.

As for “[C12H25N^+(CH3)(CH2CH2O)mH(CH2CH2O)nH^−Cl] (m + n = 15) [ETHOQUAD ™ C/25]”, the “Wt. % remaining @ given Temp” value in data set [4] (200° C.) is on record as 97.2 Wt. %; in data set [4] (240° C.), 89.4 Wt. %; in data set [4] (280° C.), 85.9 Wt. %; in data set [4] (320° C.) it was 81.8 Wt. %.

In the case of “[C18H37N^+(CH3)(CH2CH2O)mH(CH2CH2O)nH][^−N(SO2CF3)2]; (m+n=15) [Antistat 5]”, the “Wt. % remaining @ given Temp” value was 99.6 Wt. % in data set [4] (200° C.), 99.2 Wt. % in data set [4] (240° C.), 98.9 Wt. % in data set [4] (280° C.) and 98.0 Wt. % in data set [4] (320° C.). Moreover, the “weight loss compared with chloride salt of the same cation” value in data set [4] is “less weight loss than ETHOQUAD™ 18/25”.

With “[C18H37N^+(CH3)(CH2CH2O)mH(CH2CH2O)nH^−Cl] (m + n = 15) [ETHOQUAD ™ 18/25]”, the “Wt. % remaining @ given Temp” value in data set [4] (200° C.) is 97.6 Wt. %; in data set [4] (240° C.), 90.8 Wt. %; in data set [4] (280° C.), 85.5 Wt. %; in data set [4] (320° C.), 82.0 Wt. %.

As for “[CH3(OCH2CH2)19(OCH2CHCH3)2NH3^+][^−N(SO2CF3)2] [Antistat 6]”, in data set [3], the “Surface Resistivity 1% MEK solution” value is on record as 1.6 × 10^9 Ohm/cm^2 and the “Surface Resistivity 6% MEK” value is reported as 7.8 × 10^9 Ohm/cm^2.

For the molecule “[CH3(OCH2CH2)19(OCH2CHCH3)2NH3^+][^−O3SCF3] [Comparative Antistat 2]”, in data set [3], the “Surface Resistivity 1% MEK solution” value was 1.5 × 10^12 Ohm/cm^2 and the “Surface Resistivity 6% MEK” value is 1.6 × 10^12 Ohm/cm^2.
